Laboratory results reported in patent publication US20060211887A1, “Phosphate salts of 6-dimethylaminomethyl-1-(3-methoxyphenyl)-1,3-dihydroxy-cyclohexane compounds” (priority 2005, published 2006).
Structures can show the parent of a compound that is named as a salt.

Experiments:
[1] = Storage of the amorphous phosphate salt at 75% r.h.; format: physicochemical; conditions: crystallized after 8 days
Text: The amorphous phosphate salt crystallized after 8 days on storage at a relative atmospheric humidity of 75% r.h. and formed form A.

[2] = DVS (dynamic vapor sorption) experiment on the amorphous phosphate salt; format: physicochemical
Text: The amorphous phosphate salt of I crystallized during a DVS (dynamic vapor sorption) experiment at a relative atmospheric humidity of 45% r.h.

SMILES: COc1cccc([C@@]2(O)C[C@H](O)CC[C@@H]2CN(C)C)c1 (racemic) [amorphous phosphate salt of I, (1RS,3RS,6RS)-6-dimethylaminomethyl-1-(3-methoxyphenyl)-cyclohexane-1,3-diol]
- Form formed on storage [1]: form A
- Relative atmospheric humidity at which the amorphous salt crystallized [2]: 45 % r.h.

SMILES: COc1cccc([C@@]2(O)C[C@H](O)CC[C@@H]2CN(C)C)c1 (racemic) [form A, (1RS,3RS,6RS)-6-dimethylaminomethyl-1-(3-methoxyphenyl)-cyclohexane-1,3-diol]
- Stability of the hydrate formed during the desorption ([2]; desorption): remained stable during the desorption
